We go through 4 compounds from PMC9258070, “Establishment and evaluation of glucose-modified nanocomposite liposomes for the treatment of cerebral malaria” (Journal of Nanobiotechnology, 2022).

A short description of series [1]: Brain biodistribution study (LC-MS). To be noted: C57BL/6, mouse. As to the method:
(§1) The C57BL/6 mouse cerebral malaria model was established according to the method of “In vivo antimalarial experiment”. The model mice were randomly divided into the intranasal administration group (na-ATS/TMP@lipoBX) and tail vein injection group (iv-ATS/TMP@lipoBX). The dosage of each administration group was artesunate (ATS) 15.6 mg/kg and tetramethylpyrazine hydrochloride (TMP) 20.8 mg/kg.
Mice were euthanized and the brains were dissected. The brain samples were homogenized by adding 4 times their weight of physiological saline to prepare a tissue homogenate. The brain homogenates were processed according to the processing method for the plasma sample, and LC–MS quantitative analysis was carried out.
(§2) LC conditions were as follows: column: Waters UPLC BEH C18 column (1.7 μm, 2.1 mm × 50 mm); mobile phase: water (0.1% formic acid and 5 mM ammonium formate)-acetonitrile (85:15, v/v), flow rate: 0.3 ml/min; column temperature: 35 ℃. Mass spectrum conditions were as follows: electric spray ion source (ESI); multiple response monitoring (MRM) mode; positive ion scanning mode; air curtain pressure (N2) was 40 psi, impact air pressure (N2) was 9 psi, atomization gas pressure (N2) was 55 psi, auxiliary gas pressure (N2) was 55 psi; spray voltage was 5500 V; atomization temperature was 550 ℃.

Series [2] can be described thus: Solubility of the conjugate (description). It is filed as physicochemical.
Series [3] in a line: Pharmacokinetic study in plasma (LC-MS). The conditions noted are these: C57BL/6, mouse. As to the method:
as §1
Blood samples were collected at 5 min, 10 min, 15 min, 30 min, 45 min, 1 h, 2 h, 4 h, 8 h, 12 h and 24 h after administration. These samples were immediately placed in a tube containing heparin sodium (1000 U/mL). Plasma samples were obtained after centrifugation at 4000 rpm for 10 min and an esterase inhibitor was added to the samples. Subsequently, methanol was added to the plasma in the ratio of 1:2 (plasma-methanol) and centrifuged at 14,000 rpm for 5 min to obtain liquid supernatant for quantitative analysis by LC–MS.
as §2

Structures can show the parent of a compound that is named as a salt.

In the case of `C[C@H]1[C@@H](O)O[C@@H]2O[C@@]3(C)CC[C@H]4[C@H](C)CC[C@@H]1[C@@]24OO3` [DHA, dihydroartemisinin], the Tmax came to 23.8 ± 17 min in series [1] (brain, inhaled or intranasal) and 7.5 ± 2.88 min in series [1] (brain, iv). The bioavailability in series [1] (brain, other: intranasal) was approximately 449%.

In the case of `CC(C)CCCC(C)C1CCC2C3CC=C4CC(OC(=O)CCCCCCCCCCOc5ccc(OC6OC(CO)C(O)C(O)C6O)cc5)CCC4(C)C3CCC12C` (stereo not shown) [cholesterol-undecanoate-glucose conjugate], the solubility result in series [2] is “soluble in ethanol and tetrahydrofuran”.

For `C[C@H]1[C@H](OC(=O)CCC(=O)O)O[C@@H]2O[C@@]3(C)CC[C@H]4[C@H](C)CC[C@@H]1[C@@]24OO3` [ATS, artesunate], the bioavailability in series [3] (in vivo) is approximately 91%; in series [1] (brain, other: intranasal), approximately 415%. The Tmax in series [3] (plasma, inhaled or intranasal) is 144 ± 225 min; in series [3] (plasma, iv), 17.5 ± 18.5 min; in series [1] (brain, inhaled or intranasal), 210 ± 60 min; in series [1] (brain, iv) it was 495 ± 311 min.

For the compound `Cc1nc(C)c(C)nc1C` [TMP, tetramethylpyrazine hydrochloride], the bioavailability is approximately 97% in series [3] (in vivo) and approximately 183% in series [1] (in vivo). Besides, the Tmax was 4.98 min in series [3] (in vivo, inhaled or intranasal); 6.24 ± 2.52 min in series [3] (in vivo, iv); 4.98 min in series [1] (in vivo, inhaled or intranasal); 4.98 min in series [1] (in vivo, iv).
